Assay results: US10441628B2, “High activity tumour inhibitor and preparation method and use thereof” (BAO KANG BIOMEDICAL HEALTHCARE INC, priority 2014, dated 2019)
Where two headings read alike, the source gives them in different places. Positions of bridges follow the written chain, without caps; N, C: chain ends. Non-standard residues stand in square brackets, D forms with d. Residues, ends and D or L forms follow the SMILES beside them. No end group written: not given here. *: point of attachment. Phe(3-Cl) = N[C@@H](Cc1cccc(Cl)c1)C(=O)O; Stearoyl = CCCCCCCCCCCCCCCCCC(=O)*; hCys = N[C@@H](CCS)C(=O)O; Nle = CCCC[C@H](N)C(=O)O; Orn = NCCC[C@H](N)C(=O)O; Dab = NCC[C@H](N)C(=O)O

How the values were obtained:
[1] = system: MHCC97L; test: Cell proliferation inhibition of MHCC97L by liposome formulations / acylated polypeptides, CCK-8; format: cell-based
Protocol: MHCC97L (ATCC) cells were seeded in 96-well plates with 10% FBS DMEM medium at a density of 4000 cells/well and incubated overnight at 37° C. […] The cell viability was determined by CCK-8 kit.

[2] = system: BEL7404; test: Cell proliferation inhibition of BEL7404 by liposome formulations / acylated polypeptides, CCK-8; format: cell-based
[3] = in vitro; settings: plasma
Protocol: (§4) For the YAP inhibitory polypeptides modified in above (a) and (b), the IC50 values for TEAD binding and the stability in plasma were measured.

[4] = molecular target: TEAD (UniProt P28347); test: TEAD binding (TR-FRET test)
Chain of TEAD (P28347 whole entry): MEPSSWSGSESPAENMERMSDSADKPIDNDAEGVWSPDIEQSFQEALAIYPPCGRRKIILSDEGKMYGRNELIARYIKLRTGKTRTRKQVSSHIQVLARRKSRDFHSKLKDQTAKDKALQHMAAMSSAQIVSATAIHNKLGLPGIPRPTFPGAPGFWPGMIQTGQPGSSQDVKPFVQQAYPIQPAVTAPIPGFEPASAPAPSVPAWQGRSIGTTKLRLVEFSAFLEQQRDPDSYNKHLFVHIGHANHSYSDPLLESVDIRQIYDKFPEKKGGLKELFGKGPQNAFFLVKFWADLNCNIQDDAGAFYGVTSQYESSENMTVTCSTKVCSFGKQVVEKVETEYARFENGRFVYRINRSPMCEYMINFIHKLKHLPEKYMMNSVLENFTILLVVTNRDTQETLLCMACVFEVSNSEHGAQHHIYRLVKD
Protocol: The interaction of the two molecules makes the two fluorophores close to each other and generate energy transfer, and then fluoresce at specific wavelength is transmitted.
The sequences of the modified peptides were represented by SEQ ID NOs.: 8 and 9. The IC50 values for TEAD binding and stability in plasma were measured.
The modified polypeptides were tested to measure IC50 values for TEAD binding and stability in plasma.

[5] = Cell penetration or infiltration of polypeptides; format: cell-based; settings: penetration of the peptide with RRMKWKK taken as 100%
From the text: In this example, the sequence was modified based on SEQ ID NO.: 1. Some preferred modification based on the tested results included: adding a disulfide linkage within the peptide, or adding a cell-penetrating element.

[6] = plasma
Protocol: as §4

[7] = Stability in plasma (residual peptide)
Protocol: as §4

[8] = system: HCCLM3; format: cell-based
Protocol: (§1) The hepatoma cell line BEL7404 (purchased from The Chinese Academy of Sciences cell bank) was a cell line with high expression of YAP protein; HCCLM3 (purchased from The Chinese Academy of Sciences cell bank) was a cell line with low expression of YAP protein. The hepatoma cell lines (BEL7404 or HCCLM3) were inoculated into a 96-well plate at the concentration of 2000 cells/well, and incubated overnight in RPMI1640 containing 1% bovine serum at 37° C. The hepatoma cell lines were treated with polypeptides having different concentrations at 37° C. for 72 h.
(§2) Moreover, IC50 values of the cells in 1.1 were determined using CCK-8 kit.
(§3) The polypeptide represented by SEQ ID NO.:1 was further modified. The IC50 values of the polypeptides at a concentration of 1% in cell cultivating for 72 h were measured.

[9] = system: BEL7404; format: cell-based
Protocol: as §1, §2, §3

Compound: CCCCCCCCCCCCCCCCCC(=O)NCCCC[C@H](NC(=O)[C@@H]1CSSCC[C@H](NC(=O)[C@H](CCCCN)NC(=O)[C@H](CCCCN)NC(=O)[C@H](CC(C)C)NC(=O)[C@H](Cc2cccc(Cl)c2)NC(=O)[C@@H]2CCCN2C(=O)[C@@H](NC(C)=O)C(C)C)C(=O)N[C@@H](CCCC)C(=O)N2CCC[C@H]2C(=O)N[C@@H](C)C(=O)N[C@@H](CO)C(=O)N[C@@H](Cc2ccccc2)C(=O)N[C@@H](CCCCN)C(=O)N2CCC[C@H]2C(=O)N2CCC[C@H]2C(=O)N1)C(N)=O [P49 polypeptide] (Ac-VP[Phe(3-Cl)]LKK[hCys][Nle]PASFKPPCK(Stearoyl)-NH2; disulfide 7-16)
- IC50 [1]: 7.83 ± 2.69 µM
- IC50 [2]: 2.02 ± 0.39 µM

Compound: CC(C)C[C@@H]1NC(=O)[C@@H](NC(=O)[C@H](Cc2ccccc2)NC(=O)[C@@H]2CCCN2C(=O)[C@@H](N)C(C)C)CCSSC[C@@H](C(=O)N[C@@H](CCCCN)C(=O)N2CCC[C@H]2C(=O)N2CCC[C@H]2C(=O)N[C@@H](CCC(=O)O)C(=O)O)NC(=O)[C@H](Cc2ccccc2)NC(=O)[C@H](CO)NC(=O)[C@H](CC(=O)O)NC(=O)[C@@H]2CCCN2C(=O)[C@H](CC(C)C)NC(=O)[C@H](CCN)NC(=O)[C@H](CCCNC(=N)N)NC1=O [compound 6] (H-VPF[hCys]LR[Dab]LPDSFCKPPE-OH; disulfide 4-13 (inferred); N-terminus and C-terminus assumed)
- remaining at 4 h [3]: 98%
- IC50 [4]: 0.028 µM

Compound: CSCC[C@H](NC(=O)[C@@H]1CCCN1C(=O)[C@@H](N)C(C)C)C(=O)N[C@H]1CCSSC[C@@H](C(=O)N[C@@H](CC(=O)O)C(=O)N2CCC[C@H]2C(=O)N2CCC[C@H]2C(=O)N[C@@H](CCC(=O)O)C(=O)O)NC(=O)[C@H](Cc2ccccc2)NC(=O)[C@H](CO)NC(=O)[C@H](CS)NC(=O)[C@@H]2CCCN2C(=O)[C@H](CC(C)C)NC(=O)[C@H](CCCCN)NC(=O)[C@H](CCCNC(=N)N)NC(=O)[C@H](CC(C)C)NC1=O [compound 9] (H-VPM[hCys]LRKLPCSFCDPPE-OH; disulfide 4-13)
- remaining at 4 h [3]: 100%
- IC50 [4]: 0.025 µM

Compound: 3: Peptide (SEQ ID NO.: 1) + Cell-penetrating element 1 (RRMKWKK, SEQ ID NO.: 13) (VPMRLRKLPDSFFKPPERRMKWKK; cell penetrating element; listed as Homo sapiens) [Peptide 3]
- Percentage of Cell penetration or infiltration [5]: 100%
- Stability (4 h) [6]: 49%

Compound: CSCC[C@H](NC(=O)[C@@H]1CCCN1C(=O)[C@@H](N)C(C)C)C(=O)N[C@H]1CSSC[C@@H](C(=O)N[C@@H](Cc2c[nH]cn2)C(=O)N2CCC[C@H]2C(=O)N2CCC[C@H]2C(=O)N[C@@H](CCC(=O)O)C(=O)O)NC(=O)[C@H](Cc2ccccc2)NC(=O)[C@H](CO)NC(=O)[C@H](CCC(=O)O)NC(=O)[C@@H]2CCCN2C(=O)[C@H](CC(C)C)NC(=O)[C@H](CCCCN)NC(=O)[C@H](CCCNC(=N)N)NC(=O)[C@H](CC(C)C)NC1=O [compound 8] (H-VPMCLRKLPESFCHPPE-OH; disulfide 4-13; N-terminus and C-terminus assumed)
- remaining at 4 h [3]: 105%
- IC50 [4]: 0.028 µM

Compound: CSCC[C@H](NC(=O)[C@@H]1CCCN1C(=O)[C@@H](N)C(C)C)C(=O)N[C@@H](CCCNC(=N)N)C(=O)N[C@@H](CC(C)C)C(=O)N[C@@H](CCCNC(=N)N)C(=O)N[C@@H](CCCCN)C(=O)N[C@@H](CC(C)C)C(=O)N1CCC[C@H]1C(=O)N[C@@H](CC(=O)O)C(=O)N[C@@H](CO)C(=O)N[C@@H](Cc1ccccc1)C(=O)N[C@@H](Cc1ccccc1)C(=O)N[C@@H](CCCCN)C(=O)N1CCC[C@H]1C(=O)N1CCC[C@H]1C(=O)N[C@@H](CCC(=O)O)C(=O)O [SEQ ID NO.: 1]
- stability (in words) [7]: low stability
- remaining at 4 h ([7]; plasma): 0%
- Stability (>24 h) ([7]; plasma, percentage of residual peptides after >24 h): 0%
- IC50 ([8]; 72 h): 809 ± 27.4 µM
- IC50 ([9]; 72 h): 388 ± 43.6 µM

Compound: 4: Peptide (SEQ ID NO.: 1) + Cell-penetrating element 2 (RGRKKRRQRRR, SEQ ID NO.: 14) (VPMRLRKLPDSFFKPPERGRKKRRQRRR; cell penetrating element; listed as Homo sapiens) [Peptide 4]
- Percentage of Cell penetration or infiltration [5]: 135%

Compound: CSCC[C@H](NC(=O)[C@@H]1CCCN1C(=O)[C@@H](N)C(C)C)C(=O)N[C@H]1CCSSC[C@@H](C(=O)N[C@@H](CCCCN)C(=O)N2CCC[C@H]2C(=O)N2CCC[C@H]2C(=O)N[C@@H](CCC(=O)O)C(=O)O)NC(=O)[C@H](Cc2ccccc2)NC(=O)[C@H](CO)NC(=O)[C@H](CC(=O)O)NC(=O)[C@@H]2CCCN2C(=O)[C@H](CC(C)C)NC(=O)[C@H](CCCCN)NC(=O)[C@H](CCCNC(=N)N)NC(=O)[C@H](CC(C)C)NC1=O [Peptide 2]
- remaining at 4 h ([7]; plasma, Stability (4 h), plasma, percentage of residual peptides after 4 h): 93%
- Percentage of Cell penetration or infiltration [5]: 8%

Compound: CC(C)C[C@@H]1NC(=O)[C@@H](NC(=O)[C@H](Cc2ccccc2)NC(=O)[C@@H]2CCCN2C(=O)[C@@H](N)C(C)C)CCSSC[C@@H](C(=O)N[C@@H](CCCCN)C(=O)N2CCC[C@H]2C(=O)N2CCC[C@H]2C(=O)N[C@@H](CCC(=O)O)C(=O)O)NC(=O)[C@H](Cc2ccccc2)NC(=O)[C@H](CO)NC(=O)[C@H](CC(=O)O)NC(=O)[C@@H]2CCCN2C(=O)[C@H](CC(C)C)NC(=O)[C@H](CCCN)NC(=O)[C@H](CCCNC(=N)N)NC1=O [compound 5] (H-VPF[hCys]LR[Orn]LPDSFCKPPE-OH; disulfide 4-13 (inferred); N-terminus and C-terminus assumed)
- remaining at 4 h [3]: 99%
- IC50 [4]: 0.043 µM

Compound: PQGQGPPSGPGQPAPA [compound 16]
- IC50 ([8]; 72 h): > 1000 µM
- IC50 ([9]; 72 h): 242 ± 27.2 µM

Compound: PAGWEMAKTSSGQRYF [compound 20]
- IC50 ([8]; 72 h): > 1000 µM
- IC50 ([9]; 72 h): 444 ± 46.5 µM

Compound: 32 (VPXLXKKXPASFKCPPRRMKWKK; (3)..(3) Xaa=(3Cl-)F; (5)..(5) Xaa=Hcy; (8)..(8) Xaa=Nle) [compound 32]
- IC50 ([8]; concentration of 1% in cell cultivating for 72 h, read-out: IC50 HCCLM3): 319 ± 17.5 µM
- IC50 ([9]; concentration of 1% in cell cultivating for 72 h, read-out: IC50 BEL7404): 38.4 ± 3.8 µM
